# Assay results: ChEMBL document CHEMBL5614405 (J Med Chem, 2024)
# Activity calls are given as the source filed them. No cut-off for these calls is given here.
# Legend:
# [1] = Drug metabolism in New Zealand rabbit aqueous humor of eyeball assessed as (S)-3-amino-2-(4-(hydroxymethyl)phenyl)-N-(isoquinolin-6-yl)propanamide Dimethanesulfonate metabolite formation at 1.55 mM TOP administration on eye measured after 4 hrs by LC-MS/MS analysis; type: ADME, Oryctolagus cuniculus; details: in vivo, topical_or_ocular, 1550 µM
# [2] = Toxicity in New Zealand rabbit assessed as appearance of conjunctival congestion by measuring ocular irritation score at 0.03 % TOP administration on left eye measured after 4 days by draize eye irritation test; type: tissue-based, Oryctolagus cuniculus; details: in vivo, topical_or_ocular, 96 h, time 4 day
# [3] = Drug metabolism in New Zealand rabbit cornea assessed as 3-(hydroxymethyl)benzoic acid metabolite formation at 1.55 mM TOP administration on eye measured upto 1 hr by LC-MS/MS analysis; type: ADME, tissue-based, Oryctolagus cuniculus; details: in vivo, topical_or_ocular, 1550 µM
# Mus musculus [4] = test: Anti-glaucoma activity in magnetic microbead induced occlusion C57BL/6J mouse model assessed as increase in retinal ganglion cell population at 441.27 uM,TOP administrated on right eye thrice a day for 21 days by immunofluorescence based confocal microscopic analysis relative to Netarsudil; type: functional, organism-based; details: time 21.0 day
# [5] = molecular target: T1, Rho-associated protein kinase 1 (Homo sapiens, UniProt Q13464); test: Inhibition of ROCK1 (unknown origin) incubated for 10 mins in presence of ATP by mobility shift assay
# Target sequence in this assay (Q13464 whole entry): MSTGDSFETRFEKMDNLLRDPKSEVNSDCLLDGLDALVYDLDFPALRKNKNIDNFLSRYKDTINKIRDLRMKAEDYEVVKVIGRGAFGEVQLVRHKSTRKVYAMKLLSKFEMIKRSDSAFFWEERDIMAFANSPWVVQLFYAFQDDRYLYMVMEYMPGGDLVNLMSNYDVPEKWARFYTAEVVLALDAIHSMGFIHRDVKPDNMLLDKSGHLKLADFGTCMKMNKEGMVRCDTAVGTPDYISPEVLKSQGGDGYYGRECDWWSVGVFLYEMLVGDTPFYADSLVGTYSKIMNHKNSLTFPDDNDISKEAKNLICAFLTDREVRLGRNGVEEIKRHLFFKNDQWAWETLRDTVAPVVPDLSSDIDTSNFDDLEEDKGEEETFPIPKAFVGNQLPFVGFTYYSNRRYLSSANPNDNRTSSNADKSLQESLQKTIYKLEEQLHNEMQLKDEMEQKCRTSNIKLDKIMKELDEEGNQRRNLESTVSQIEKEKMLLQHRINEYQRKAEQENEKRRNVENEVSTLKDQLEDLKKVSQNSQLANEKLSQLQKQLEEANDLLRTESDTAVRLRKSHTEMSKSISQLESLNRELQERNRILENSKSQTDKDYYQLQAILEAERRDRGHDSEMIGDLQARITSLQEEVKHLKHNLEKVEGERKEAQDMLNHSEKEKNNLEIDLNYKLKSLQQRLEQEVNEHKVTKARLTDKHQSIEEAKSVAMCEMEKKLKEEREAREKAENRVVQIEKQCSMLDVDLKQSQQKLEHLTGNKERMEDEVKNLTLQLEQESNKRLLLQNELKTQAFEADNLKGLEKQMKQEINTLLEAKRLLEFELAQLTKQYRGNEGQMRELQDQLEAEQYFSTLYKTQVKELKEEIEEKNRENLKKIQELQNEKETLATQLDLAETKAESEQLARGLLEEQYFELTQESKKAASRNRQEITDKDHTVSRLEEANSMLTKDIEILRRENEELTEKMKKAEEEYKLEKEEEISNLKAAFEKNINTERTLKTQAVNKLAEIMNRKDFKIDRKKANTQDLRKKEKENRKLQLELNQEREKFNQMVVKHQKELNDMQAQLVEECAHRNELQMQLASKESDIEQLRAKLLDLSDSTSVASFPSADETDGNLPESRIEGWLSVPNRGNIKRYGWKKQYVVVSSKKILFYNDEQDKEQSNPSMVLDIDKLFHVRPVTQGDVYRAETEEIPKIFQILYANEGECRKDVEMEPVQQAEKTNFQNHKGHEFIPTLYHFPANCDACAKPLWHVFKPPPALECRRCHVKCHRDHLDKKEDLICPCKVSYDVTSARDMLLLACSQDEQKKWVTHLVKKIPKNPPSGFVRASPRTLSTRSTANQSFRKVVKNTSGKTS
# [6] = molecular target: T2, Rho-associated protein kinase 2 (Homo sapiens, UniProt O75116); test: Inhibition of ROCK2 (unknown origin) incubated for 60 mins in presence of ATP by mobility shift assay
# Target sequence in this assay (O75116 whole entry): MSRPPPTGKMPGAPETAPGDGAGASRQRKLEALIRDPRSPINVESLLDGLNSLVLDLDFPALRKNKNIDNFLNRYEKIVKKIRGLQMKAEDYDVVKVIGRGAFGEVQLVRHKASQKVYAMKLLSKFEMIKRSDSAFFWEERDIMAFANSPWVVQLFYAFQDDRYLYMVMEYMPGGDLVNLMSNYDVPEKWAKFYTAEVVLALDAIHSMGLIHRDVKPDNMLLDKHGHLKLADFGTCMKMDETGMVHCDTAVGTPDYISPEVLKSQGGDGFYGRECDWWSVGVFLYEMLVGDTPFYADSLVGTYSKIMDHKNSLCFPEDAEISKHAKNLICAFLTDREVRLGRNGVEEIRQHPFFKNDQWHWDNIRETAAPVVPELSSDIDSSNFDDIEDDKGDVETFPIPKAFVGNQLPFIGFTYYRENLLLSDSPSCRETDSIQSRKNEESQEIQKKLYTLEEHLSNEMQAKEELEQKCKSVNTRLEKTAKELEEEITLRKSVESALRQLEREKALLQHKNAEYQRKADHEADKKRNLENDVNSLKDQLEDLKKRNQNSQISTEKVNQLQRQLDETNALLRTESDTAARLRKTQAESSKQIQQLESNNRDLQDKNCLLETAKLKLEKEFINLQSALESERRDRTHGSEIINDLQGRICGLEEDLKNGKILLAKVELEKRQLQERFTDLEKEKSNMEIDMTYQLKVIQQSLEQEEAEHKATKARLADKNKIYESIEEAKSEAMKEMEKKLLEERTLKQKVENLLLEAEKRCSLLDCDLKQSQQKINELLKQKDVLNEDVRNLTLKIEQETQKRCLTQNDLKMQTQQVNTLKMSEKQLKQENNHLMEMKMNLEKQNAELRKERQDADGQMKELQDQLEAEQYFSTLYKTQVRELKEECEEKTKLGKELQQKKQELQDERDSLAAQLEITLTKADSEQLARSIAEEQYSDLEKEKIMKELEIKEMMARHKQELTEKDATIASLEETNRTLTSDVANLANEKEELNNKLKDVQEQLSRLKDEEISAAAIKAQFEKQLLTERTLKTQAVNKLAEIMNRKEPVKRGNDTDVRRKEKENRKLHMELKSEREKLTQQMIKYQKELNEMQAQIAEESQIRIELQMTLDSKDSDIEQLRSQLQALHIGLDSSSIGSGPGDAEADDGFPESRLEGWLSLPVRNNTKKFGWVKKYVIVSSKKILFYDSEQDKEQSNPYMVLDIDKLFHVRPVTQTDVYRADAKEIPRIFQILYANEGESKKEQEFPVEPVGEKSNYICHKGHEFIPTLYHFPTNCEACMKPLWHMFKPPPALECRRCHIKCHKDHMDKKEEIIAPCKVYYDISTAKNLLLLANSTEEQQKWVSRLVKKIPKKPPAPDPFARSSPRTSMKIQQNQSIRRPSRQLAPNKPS
# [7] = Drug metabolism in New Zealand rabbit cornea assessed as 3-(hydroxymethyl)benzoic acid metabolite formation at 1.55 mM TOP administration on eye measured after 4 hr by LC-MS/MS analysis; type: ADME, tissue-based, Oryctolagus cuniculus; details: in vivo, topical_or_ocular, 1550 µM
# [8] = Drug metabolism in New Zealand rabbit aqueous humor of eyeball assessed as 3-(hydroxymethyl)benzoic acid metabolite formation at 1.55 mM TOP administration on eye measured after 4 hr by LC-MS/MS analysis; type: ADME, tissue-based, Oryctolagus cuniculus; details: in vivo, topical_or_ocular, 1550 µM
# [9] = molecular target: T2, Rho-associated protein kinase 2; test: Inhibition of ROCK2 (unknown origin) assessed as fold change at 3 uM incubated for 60 mins in presence of ATP by mobility shift assay
# Target sequence in this assay (O75116 whole entry, looked up): as the sequence (O75116 whole entry) above
# [10] = Drug metabolism in New Zealand rabbit cornea assessed as (S)-3-amino-2-(4-(hydroxymethyl)phenyl)-N-(isoquinolin-6-yl)propanamide Dimethanesulfonate metabolite formation at 1.55 mM TOP administration on eye measured upto 6 hrs by LC-MS/MS analysis; type: ADME, tissue-based, Oryctolagus cuniculus; details: in vivo, topical_or_ocular, 1550 µM
# Oryctolagus cuniculus [11] = test: Anti-glaucoma activity in methylcellulose-induced acute intraocular hypertensive New Zealand rabbit model assessed as reduction in intraocular pressure at 1.55 mM,TOP administration on conjunctival sac measured upto 24 hrs relative to (R)-4-(3-amino-1-(isoquinolin-6-ylamino)-1-oxopropan-2-yl)benzyl 3-((nitrooxy)methyl)benzoate Dimethanesulfonate; type: functional, organism-based
# [12] = Drug metabolism in New Zealand rabbit aqueous humor of eyeball assessed as (S)-3-amino-2-(4-(hydroxymethyl)phenyl)-N-(isoquinolin-6-yl)propanamide Dimethanesulfonate metabolite formation at 1.55 mM TOP administration on eye measured after 4 to 6 hrs by LC-MS/MS analysis; type: ADME, tissue-based, Oryctolagus cuniculus; details: in vivo, topical_or_ocular, 1550 µM, time 4-6 hrs
# [13] = Toxicity in chicken embryo chorioallantoic membrane assessed as irritation score at 1.55 mM measured after 5 mins by microscopic analysis relative to Netarsudil; type: tissue-based, Gallus gallus; details: in vivo, 1550 µM
# [14] = Unbound drug concentration in New Zealand rabbit aqueous humor of eyeball at 1.55 mM TOP administration on eye measured upto 6 hr by LC-MS/MS analysis; type: ADME, tissue-based, Oryctolagus cuniculus; details: in vivo, topical_or_ocular, 1550 µM
# [15] = Toxicity in New Zealand rabbit assessed as appearance of conjunctival congestion by measuring ocular irritation score at 0.03 % TOP administration on left eye measured after 5 days by draize eye irritation test; type: tissue-based, Oryctolagus cuniculus; details: in vivo, topical_or_ocular, 120 h, time 5 day
# [16] = Toxicity in New Zealand rabbit assessed as appearance of conjunctival congestion by measuring ocular irritation score at 0.03 % TOP administration on left eye measured after 2 days by draize eye irritation test; type: tissue-based, Oryctolagus cuniculus; details: in vivo, topical_or_ocular, 48 h, time 2 day
# Mus musculus [17] = test: Anti-glaucoma activity in magnetic microbead induced occlusion C57BL/6J mouse model assessed as reduction in intraocular pressure at 441.27 uM,TOP administration on right eye measured upto 8 hr by tonometric analysis relative to Netarsudil; type: functional, organism-based
# [18] = Unbound drug concentration in New Zealand rabbit cornea at 1.55 mM TOP administration on eye measured upto 3 hr by LC-MS/MS analysis; type: ADME, tissue-based, Oryctolagus cuniculus; details: in vivo, topical_or_ocular, 1550 µM
# [19] = Drug metabolism in New Zealand rabbit cornea assessed as 3-((nitrooxy)methyl)benzoic acid metabolite formation at 1.55 mM TOP administration on eye measured upto 6 hr by LC-MS/MS analysis; type: ADME, tissue-based, Oryctolagus cuniculus; details: in vivo, topical_or_ocular, 1550 µM
# Mus musculus [20] = test: Anti-glaucoma activity in magnetic microbead induced occlusion C57BL/6J mouse model assessed as increase in retinal ganglion cell population at 441.27 uM,TOP administrated on right eye thrice a day for 21 days by immunofluorescence based confocal microscopic analysis; type: functional, organism-based; details: time 21.0 day
# Oryctolagus cuniculus [21] = test: Anti-glaucoma activity in methylcellulose-induced acute intraocular hypertensive New Zealand rabbit model assessed as reduction in intraocular pressure at 441.27 uM,TOP administration on conjunctival sac measured for 4 to 24 hrs relative to Netarsudil; type: functional, organism-based; details: time 4-24 hrs
# [22] = Toxicity in chicken embryo chorioallantoic membrane assessed as irritation score at 1.55 mM measured after 5 mins in presence of NS 2028 by microscopic analysis; type: tissue-based, Gallus gallus; details: in vivo, 1550 µM
# [23] = molecular target: T1, Rho-associated protein kinase 1; test: Inhibition of ROCK1 (unknown origin) assessed as fold change at 3 uM incubated for 10 mins in presence of ATP by mobility shift assay relative to control
# Target sequence in this assay (Q13464 2-1354 limits assumed): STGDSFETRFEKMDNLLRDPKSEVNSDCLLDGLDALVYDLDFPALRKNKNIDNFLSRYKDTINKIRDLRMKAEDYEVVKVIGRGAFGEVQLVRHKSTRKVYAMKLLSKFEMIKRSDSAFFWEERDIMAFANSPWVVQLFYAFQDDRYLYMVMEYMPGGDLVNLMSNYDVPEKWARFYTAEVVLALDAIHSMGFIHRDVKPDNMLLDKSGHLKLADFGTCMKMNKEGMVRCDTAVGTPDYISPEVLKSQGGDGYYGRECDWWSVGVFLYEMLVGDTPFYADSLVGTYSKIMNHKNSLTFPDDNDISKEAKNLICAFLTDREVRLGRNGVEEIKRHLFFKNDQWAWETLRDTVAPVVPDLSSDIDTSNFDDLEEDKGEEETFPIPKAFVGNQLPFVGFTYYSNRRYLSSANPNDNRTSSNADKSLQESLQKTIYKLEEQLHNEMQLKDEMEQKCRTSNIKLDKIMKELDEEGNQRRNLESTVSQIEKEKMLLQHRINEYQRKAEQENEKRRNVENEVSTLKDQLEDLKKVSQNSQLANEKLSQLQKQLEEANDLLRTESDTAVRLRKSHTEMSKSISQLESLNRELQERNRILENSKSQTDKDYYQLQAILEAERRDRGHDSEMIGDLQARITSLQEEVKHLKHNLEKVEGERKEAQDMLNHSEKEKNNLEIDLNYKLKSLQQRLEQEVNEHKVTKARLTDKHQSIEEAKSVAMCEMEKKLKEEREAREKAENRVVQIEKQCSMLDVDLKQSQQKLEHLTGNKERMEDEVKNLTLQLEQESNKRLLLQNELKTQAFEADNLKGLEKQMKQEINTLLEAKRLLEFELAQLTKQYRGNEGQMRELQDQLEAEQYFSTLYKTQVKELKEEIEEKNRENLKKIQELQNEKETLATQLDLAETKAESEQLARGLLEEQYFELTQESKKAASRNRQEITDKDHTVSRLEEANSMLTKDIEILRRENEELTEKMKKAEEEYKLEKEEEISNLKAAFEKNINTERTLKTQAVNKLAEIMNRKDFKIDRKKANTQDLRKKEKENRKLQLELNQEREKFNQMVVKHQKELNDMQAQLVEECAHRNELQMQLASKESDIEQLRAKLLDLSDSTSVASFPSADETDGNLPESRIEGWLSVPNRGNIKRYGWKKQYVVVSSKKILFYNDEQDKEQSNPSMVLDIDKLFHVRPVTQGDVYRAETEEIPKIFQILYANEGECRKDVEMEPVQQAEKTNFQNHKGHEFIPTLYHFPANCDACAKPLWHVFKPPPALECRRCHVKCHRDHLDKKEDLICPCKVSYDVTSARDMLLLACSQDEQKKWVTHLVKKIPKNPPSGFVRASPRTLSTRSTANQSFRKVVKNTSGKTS
# [24] = Drug metabolism in New Zealand rabbit aqueous humor of eyeball assessed as 3-(hydroxymethyl)benzoic acid metabolite formation at 1.55 mM TOP administration on eye measured after 4 hrs by LC-MS/MS analysis; type: ADME, Oryctolagus cuniculus; details: in vivo, topical_or_ocular, 1550 µM
# Oryctolagus cuniculus [25] = test: Anti-glaucoma activity in methylcellulose-induced acute intraocular hypertensive New Zealand rabbit model assessed as reduction in intraocular pressure at 1.55 mM,TOP administration on conjunctival sac measured upto 24 hrs relative to Netarsudil; type: functional, organism-based
# [26] = Toxicity in New Zealand rabbit assessed as appearance of conjunctival congestion by measuring ocular irritation score at 0.03 % TOP administration on left eye measured after 1 day by draize eye irritation test; type: tissue-based, Oryctolagus cuniculus; details: in vivo, topical_or_ocular, 24 h
# Mus musculus [27] = test: Anti-glaucoma activity in magnetic microbead induced occlusion C57BL/6J mouse model assessed as increase in retinal ganglion cell density at 441.27 uM,TOP administrated on right eye thrice a day for 21 days by immunofluorescence based confocal microscopic analysis relative to control; type: functional, organism-based; details: time 21.0 day
# [28] = Toxicity in New Zealand rabbit assessed as appearance of conjunctival congestion by measuring ocular irritation score at 0.03 % TOP administration on left eye measured after 3 days by draize eye irritation test; type: tissue-based, Oryctolagus cuniculus; details: in vivo, topical_or_ocular, 72 h, time 3 day
# [29] = Toxicity in chicken embryo chorioallantoic membrane assessed as irritation score at 1.55 mM measured after 5 mins in presence of PTIO by microscopic analysis; type: tissue-based, Gallus gallus; details: in vivo, 1550 µM
# Mus musculus [30] = test: Anti-glaucoma activity in magnetic microbead induced occlusion C57BL/6J mouse model assessed as reduction in intraocular pressure at 441.27 uM,TOP administration on right eye measured after 1 hr by tonometric analysis; type: functional, organism-based
# Oryctolagus cuniculus [31] = test: Anti-glaucoma activity in methylcellulose-induced acute intraocular hypertensive New Zealand rabbit model assessed as reduction in intraocular pressure at 441.27 uM,TOP administration on conjunctival sac measured after 3 hrs relative to Netarsudil; type: functional, organism-based
# [32] = Drug metabolism in New Zealand rabbit aqueous humor of eyeball assessed as 3-(hydroxymethyl)benzoic acid metabolite formation at 1.55 mM TOP administration on eye measured after 4 to 6 hrs by LC-MS/MS analysis; type: ADME, Oryctolagus cuniculus; details: in vivo, topical_or_ocular, 1550 µM, time 4-6 hrs
# [33] = Toxicity in New Zealand rabbit assessed as appearance of conjunctival congestion by measuring ocular irritation score at 0.03 % TOP administration on left eye measured after 7 days by draize eye irritation test; type: tissue-based, Oryctolagus cuniculus; details: in vivo, topical_or_ocular, 168 h, time 7 day
# [34] = Toxicity in New Zealand rabbit assessed as appearance of conjunctival congestion by measuring ocular irritation score at 0.03 % TOP administration on left eye measured after 6 days by draize eye irritation test; type: tissue-based, Oryctolagus cuniculus; details: in vivo, topical_or_ocular, 144 h, time 6 day
# [35] = Unbound drug concentration in New Zealand rabbit cornea at 1.55 mM TOP administration on eye measured upto 1 hr by LC-MS/MS analysis; type: ADME, tissue-based, Oryctolagus cuniculus; details: in vivo, topical_or_ocular, 1550 µM
# [36] = Drug metabolism in New Zealand rabbit aqueous humor of eyeball assessed as 3-((nitrooxy)methyl)benzoic acid metabolite formation at 1.55 mM TOP administration on eye measured upto 6 hrs by LC-MS/MS analysis; type: ADME, tissue-based, Oryctolagus cuniculus; details: in vivo, topical_or_ocular, 1550 µM
# [37] = Drug metabolism in New Zealand rabbit cornea assessed as 3-(hydroxymethyl)benzoic acid metabolite formation at 1.55 mM TOP administration on eye measured upto 3 hr by LC-MS/MS analysis; type: ADME, tissue-based, Oryctolagus cuniculus; details: in vivo, topical_or_ocular, 1550 µM
structure (smiles),measurement,setting,value
CS(=O)(=O)O.CS(=O)(=O)O.NC[C@@H](C(=O)Nc1ccc2cnccc2c1)c1ccc(COC(=O)c2cccc(CO[N+](=O)[O-])c2)cc1,Drug metabolism,[1],0.96 ng/mL
same,Activity,[2],1.67
same,Drug metabolism,[3],371.53 ng/g
same,Activity,Mus musculus [4],Active
same,IC50,[5],1.26 nM
same,IC50,[6],0.66 nM
same,Drug metabolism,[7],114.73 ng/mg
same,Drug metabolism,[8],60.87 ng/mL
same,fold change (FC),[9],38
same,Drug metabolism,[10],Metabolite_Detected
same,Activity,Oryctolagus cuniculus [11],Active
same,Drug metabolism,[12],Metabolite_Notdetected
same,Activity,[13],Toxic
same,Drug uptake(free),[14],Active
same,Activity,[15],0.67
same,Activity,[16],1
same,Activity,Mus musculus [17],Active
same,Drug uptake(free),[18],Not Active
same,Drug metabolism,[19],Metabolite_Detected
same,Activity,Mus musculus [20],Active
same,Activity,Oryctolagus cuniculus [21],inactive
same,Activity,[22],Toxic
same,fold change (FC),[23],28
same,Drug metabolism,[24],62.95 ng/mL
same,Activity,Oryctolagus cuniculus [25],Active
same,Activity,[26],1.67
same,Activity,Mus musculus [27],Active
same,Activity,[28],1.67
same,Activity,[29],Toxic
same,Activity,Mus musculus [30],Active
same,Activity,Oryctolagus cuniculus [31],Active
same,Drug metabolism,[32],Metabolite_Notdetected
same,Activity,[33],0.67
same,Activity,[34],1
same,Drug uptake(free),[35],14.12 ng/g
same,Drug metabolism,[36],Metabolite_Detected
same,Drug metabolism,[37],Metabolite_Notdetected
